{"source": "patent US7553881B2", "about": "“Dental materials based on radically polymerizable macromers with antimicrobial effect” (Ivoclar Vivadent AG, priority 2006, dated 2009)", "tested_on": "Staphylococcus aureus", "assay": "Antimicrobial examination of photopolymerized, washed adhesive films on slides", "type": "cell-based", "details": "adhesive with 5 wt.-% MDPB, film washed two days with water", "procedure": "The above adhesives were applied to a slide and photopolymerized using a UV lamp.\nIn a Petri dish, a modified slide was covered with 30 ml of a Staphylococcus aureus suspension in PBS (→10^7 bacteria cells/ml) and then incubated accompanied by light shaking (50 rpm) for 1 h at 37° C. The bacterial suspension was then drawn off and the slide was washed with pure PBS (15+15 ml). The slide was then dried, transferred to a new Petri dish, covered with 30 ml 1.5% nutrient agar and then incubated at 37° C. A blind sample was then analogously tested in each case using a slide which was coated with adhesive without biocidal macromer.\nThe mixture was applied to a slide and photopolymerized with the help of a UV lamp. […] A slide which had been coated with adhesive without the biocidal monomer MDPH served as comparison.", "data": [{"smiles": "C=C(C)C(=O)OCCCCCCCCCCCC[n+]1ccccc1.[Br-]", "note": "[MDPB, 12-methacryloyloxydodecylpyridinium bromide]", "values": [{"measurement": "bacterial growth on slide coated with polymerized adhesive", "result": "no bacterial decay attack on the film itself"}, {"measurement": "bacterial growth on slide coated with polymerized adhesive", "setting": "listed as MDPH", "result": "no bacterial attack"}]}]}
